# Where “and” joins values, the source holds several entries; their conditions need not be identical. Equal values may be shown once.
# Legend:
# E. coli (25922) = test: MIC assay (Table 1); type: cell-based; conditions: Escherichia coli, isolate 25922
# human RBCs = type: cell-based; conditions: 1 h, pH 7.4
# Source text: (§1) A new series of aryl compounds was designed to evaluate the effect of charge and aromatic group hydrophobicity on the biological activity while still maintaining an amphiphilic topology. Four and six cationic charges were investigated, and three different central rings were used to tune the overall hydrophobicity: benzene, naphthalene, and phenylbenzene. The hydrophobicities of the aryl compounds were quantified using reversed-phase HPLC retention times (Rt). The antimicrobial activities (expressed as minimum inhibitory concentration (MIC)) of these compounds were tested against four pathogens, including both Gram-negative and Gram-positive bacteria, and their hemolysis (evaluated in terms of HC50, the lowest concentration that causes 50% hemolysis of red blood cells (RBCs)) was tested against human RBCs.
# Cytotoxicity of the compounds is also evaluated in a hemolysis assay using human erythrocytes. Pooled whole human blood is centrifuged to separate the red blood cells (RBC). The isolated RBCs are rinsed and diluted in Tris-buffered saline (TBS buffer, pH 7.4) to obtain a 0.22% RBC stock suspension. 5 μL of a Compound stock solution is added to 45 μL of RBC suspension and incubated with shaking for 1 hour at 37° C. At the conclusion of the incubation time, samples are centrifuged and 30 μL of the supernatant is added to 100 μL of water. OD414 measurements are read for hemoglobin concentration. The bee venom peptide melittin is used as a positive control. EC50 values are determined as described above.
# Cytotoxicity is also evaluated in a hemolysis assay using isolated human erythrocytes. Pooled whole human blood is centrifuged to separate the red blood cells (RBC). The isolated RBCs are rinsed and diluted in Tris-buffered saline (TBS buffer, pH 7.4) to obtain a 0.22% RBC stock suspension. […] OD405 measurements are read for hemoglobin concentration. […] EC50 values are determined using a four parameter logistic equation: Y=Bottom+(Top−Bottom)/(1+10^((Log EC50−X)*HillSlope)).
# RAW 264.7 cells = test: Cytokine production in RAW 264.7 cells (ELISA); type: cell-based, murine; conditions: 5.0 μg/mL preincubation 1 hour, LPS 100 ng/mL 18 hours; FIG. 1B
# S. aureus (27660) = test: MIC assay (Table 1); type: cell-based; conditions: Staphylococcus aureus, isolate 27660
# K. pneumoniae (13883) = test: MIC assay (Table 1); type: cell-based; conditions: Klebsiella pneumoniae, isolate 13883, read-out: MIC50 K. Pnuemnoiae
# Protocol: (§2) The compounds are screened for antimicrobial activity against a number of clinically relevant pathogens. Minimum Inhibitory Concentrations (MIC) of each of the compounds are determined using standard procedures for clinical ocular isolates of Ciprofloxacin Susceptible (CS) S. aureus (CSSA), Ciprofloxacin Resistant (CR) S. aureus (CRSA), CS S. epidermidis (CSSE), CR S. epidermidis (CRSE), St. pneumoniae (SP), St. viridans group (SV), Moraxella Species (MS) (including Moraxella catarrhalis), H. influenzae (HI), P. aeruginosa (PA), Serratia marcescens (SM), S. aureus fluoroquinolone-susceptible, S. aureus fluoroquinolone-resistant, S. epidermidis (Coagulase-negative Staphylococcus) fluoroquinolone-susceptible, S. epidermidis (Coagulase-negative Staphylococcus) fluoroquinolone-resistant, and Serratia marcescens.
# (§3) On the day of testing, a 640 μg/m (1280 μg/m for Serratia marcescens and Pseudomonas aeruginosa) concentration is prepared from a 1% stock solution in 0.01% acetic acid, 0.2% BSA in polypropylene tubes.
# (§4) Ten μl of diluted 10× test agents is added to each well of one row of the 96 well polypropylene plates from column 2 to column 12 (column 1 is a control for bacteria alone, with no peptide). […] The same peptide is in each of the 8 rows. One plate contains dilutions of one test agent and 8 bacterial isolates.
# (§5) Ninety μl of the bacterial suspensions is dispensed in each well from column 1 to column 12. Each bacterial isolate is placed in one row of a 96 well polypropylene plate containing the test agents. The plates are placed on shaker at 15 minutes at room temperature, and then incubated at 37° C. overnight. MICs are determined visually as the lowest concentration of drug that inhibits visible bacterial growth.
# (§6) Data is expressed as MIC50 in μg/ml. The bacterial isolates were as follows: E. coli (25922); S. aureus (27660); E. faecalis (29212); P. aeruginosa (10145); and K. pneumoniae (13883).
# E. faecalis (29212) = test: MIC assay (Table 1); type: cell-based; conditions: Enterococcus faecalis, isolate 29212
# Protocol: as §2, §3, §4, §5, §6
# P. aeruginosa (10145) = test: MIC assay (Table 1); type: cell-based; conditions: Pseudomonas aeruginosa, isolate 10145
# Escherichia coli [1] = test: Antimicrobial activity (MIC) of aryl compounds (Table 2); type: cell-based; conditions: for MIC: Escherichia coli, Table 2
# Source text: as §1
# Staphylococcus aureus [2] = test: as above; type: cell-based; conditions: for MIC: Staphylococcus aureus, Table 2, read-out: MIC S. aureus
# Source text: as §1
# NIH/3T3 cells = test: Cytotoxicity colorimetric assay; type: cell-based; conditions: Mus musculus, NIH3T3, 1 h, one hour incubation in serum-free media
# Protocol: Cytotoxicity of the compounds are evaluated in a colorimetric assay using a transformed human liver cell line (HepG2, HB-8065) and an embryonic mouse cell line (NIH/3T3 cells, CRL-1658). This assay measures the bioreduction of a novel tetrazolium compound to a soluble formazan product by viable cells. HepG2 cells are seeded in 96 well plates at 2×10^4 cells/well in MEM medium with 10% fetal bovine serum (FBS) 24 hours prior to use. NIH/3T3 cells are seeded in 96 well plates at 2×10^4 cells/well in DMEM medium with 10% bovine calf serum (BCS) 24 hours prior to use. Cell monolayers are rinsed in serum-free media and incubated for one hour with a Compound in serum-free media. After incubation, the media is replaced with serum supplemented media and live cells are measured using the Cell Titer 96 Aqueous […] Assay kit (Promega, Madison, Wis.). EC50 values are determined using a four parameter logistic equation: Y=Bottom+(Top−Bottom)/(1+10^((Log EC50−X)*HillSlope)). […] Data is expressed as EC50 in μg/ml. Cytotoxicity is evaluated in a colorimetric assay using a transformed human liver cell line (HepG2, HB-8065) and an embryonic mouse cell line (NIH/3T3 cells, CRL-1658). This assay measures the bioreduction of a novel tetrazolium compound to a soluble formazan product by viable cells. HepG2 cells are seeded in 96 well plates at 3×10^4 cells/well in MEM medium with 10% fetal bovine serum (FBS) 24 hours prior to use. NIH/3T3 cells are seeded in 96 well plates at 2×10^4 cells/well in DMEM medium with 10% bovine calf serum (BCS) 24 hours prior to use. Cell monolayers are rinsed in serum-free media and incubated for one hour with test agent in serum-free media. After incubation, the media is replaced with serum supplemented media and live cells are measured using the Cell Titer 96 Aqueous […] Assay kit (Promega, Madison, Wis.). EC50 values are determined using a four parameter logistic equation: Y=Bottom+(Top−Bottom)/(1+10^((Log EC50−X)*HillSlope)).
# Staphylococcus aureus [3] = conditions: Data from Thaker, et al., J. Med. Chem., 2011, 54, 2241; cited from earlier work
# Escherichia coli [4] = conditions: Data from Thaker, et al., J. Med. Chem., 2011, 54, 2241; cited from earlier work
Compound,MIC50 (E. coli (25922)),HC50 (human RBCs),LPS-induced TNF production (RAW 264.7 cells),MIC50 (S. aureus (27660)),MIC50 (K. pneumoniae (13883)),MIC50 (E. faecalis (29212)),MIC50 (P. aeruginosa (10145)),MIC (Escherichia coli [1]),Selectivity (HC50/MIC) E. coli (Escherichia coli [1]),Selectivity (HC50/MIC) S. aureus (Staphylococcus aureus [2]),MIC (Staphylococcus aureus [2]),EC50 (NIH/3T3 cells),MIC S. aureus (Staphylococcus aureus [3]),MIC E. coli (Escherichia coli [4])
NCCCOc1cc(OCCCN)cc(-c2ccc3ccc(-c4cc(OCCCN)cc(OCCCN)c4)cc3c2)c1 [Compound 119],25 µg/mL,195 µg/mL,did not cause any additional increase in TNF production,12.5 µg/mL,50 µg/mL,6.25 µg/mL,25 µg/mL,25 µg/mL,7.8,15.6,12.5 µg/mL,,,
NCCCOc1cc(-c2cc(-c3ccccc3)cc(-c3cc(OCCCN)c(OCCCN)c(OCCCN)c3)c2)cc(OCCCN)c1OCCCN [Compound 115],6.25 µg/mL,>1000 µg/mL,did not cause any additional increase in TNF production,12.5 µg/mL,12.5 µg/mL,> 50 µg/mL,25 µg/mL,6.25 µg/mL,>160,>160,6.25 µg/mL,110 µg/mL,,
MSI-78,,,,,,,,,,,,,16 µg/mL and 8 to 16 µg/mL,16 µg/mL and 16 to 32 µg/mL

# From patent publication US9469616B2, “Cyclic compounds and methods of making and using the same” (Cellceutix Corporation, priority 2011, dated 2016)
